Laboratory results published in EPA's ToxValDB 9.5 (doi:10.2903/j.efsa.2015.4001).

Experiments:
Anas platyrhynchos = conditions: reproductive
Apis mellifera = conditions: acute, duration: 48 hours, mortality
Colinus virginianus = conditions: acute; oral
Mus musculus = conditions: organ weight
Oryctolagus sp. = conditions: developmental; development

For `CCOC(=O)COc1cc(-c2nn(C)c(OC(F)F)c2Cl)c(F)cc1Cl` [Pyraflufen-ethyl], the NOAEL (Anas platyrhynchos) was 50 mg/kg-day, the LD50 (Apis mellifera; dermal) was > 100 µg/piece and the LD50 (Apis mellifera; oral, unspecified) was > 112 µg/piece. The LD50 (Colinus virginianus) was > 2000 mg/kg-day, the NOAEL (Mus musculus; chronic, duration: 18 months) was 20 mg/kg-day and the NOAEL (Mus musculus; subchronic, duration: 90 days, oral) was 20 mg/kg-day. The NOAEL (Oryctolagus sp.) was 20 mg/kg-day, the LD50 (Rattus norvegicus; acute, oral, mortality) was > 5000 mg/kg-day and the NOAEL (Rattus norvegicus; chronic, duration: 2 years, organ weight) was 20 mg/kg-day. For the same compound, the NOAEL (Rattus norvegicus; reproduction developmental) was 20 mg/kg-day, the LC50 (Tagia sp.; acute, duration: 14 days, mortality) was > 500 mg/kg and the NOEC (Tagia sp.; chronic/long-term) was ≥ 250 mg/kg.
